Laboratory results taken from publication PMC7002685, “Inhibition of vascular calcification by inositol phosphates derivatized with ethylene glycol oligomers” (Nature Communications, 2020).
Several values for one entry are separate records, joined by “and”; a condition that tells them apart may be missing. Equal values may be shown once. Read-outs that look alike come from different tables or passages of the source.

Legend:
[1] = test system: THP-1-derived macrophages; assay: Macrophage viability (MTS) with CPP2 and compounds; assay type: cell-based, human
Procedure: (§1) Macrophage accumulation and inflammation coincide with the initial phase of calcification. To this end, VSMCs and THP-1-derived macrophages were exposed to CPP2-supplemented medium. CPP2 prepared from human serum as described previously[61] (Supplementary Figs. 6 and 7), induced a pronounced VSMC monolayer calcification after 48 h, which was decreased by (OEG2)2-IP4 in a dose-dependent fashion, and the effect became significant at 10 µM (Fig. 3e). […] Both H2O2 (proxy for oxidative stress) and tumor necrosis factor-alpha (TNF-α) (proxy for inflammatory response) levels were assayed in the VSMC culture supernatants subsequent to CPP2 treatment with and without compounds[30]. However, no increase in H2O2 nor TNF-α compared to control could be detected in either assay. For the CPP-induced VSMC calcification assay (Fig. 3e) a roughly 10-fold higher concentration of (OEG2)2-IP4 was necessary to achieve similar activity as in the CaP-induced VSMC calcification assay (Fig. 3b). […] In the CaP assay, low inhibitor concentration may be sufficient to inhibit crystal nucleation, whereas for the CPP assay higher inhibitor concentrations may be needed to achieve sufficient particle stabilization by chemisorption of inhibitor onto CPPs. Similar results have been reported for hydrogen sulfide in the context of VC[62],[64]. […] An increase in the TNFα levels in the cell culture supernatants was not observed for (OEG2)2-IP4 with (Fig. 3h) and without (Supplementary Fig. 10) combined CPP2 treatment.
(§2) THP-1 cells were plated at a density of 200,000 cells/well in a 24-well plate, differentiated as stated above, and subsequently treated with or without CPP2 (50 μg Ca/mL) in complete medium with or without test compounds (3, 10, 30, 100 μM) for 24 h at 37 °C, 5% CO2.
(§3) Cell viability was assessed using the MTS assay (CellTiter 96® Aqueous One Solution Cell Proliferation Assay, G3580; Promega, Madison, WI, USA) according to the manufacturer’s instructions. Assays using combined treatment of CPPs or CaP and test compounds were performed in 24-well plates using 20,000 cells per well and assays using test compounds only were performed in a 96-well plate format with a seeding density of 10,000 (VSMC) or 50,000 (THP-1) cells per well, respectively. For controls, cells were treated with respective complete medium only and results were calculated as % of control.

[2] = Macrophage viability (MTS) with CPP2 and compounds; assay type: cell-based, human; conditions: human, THP-1-derived macrophages, read-out: Macrophage viability (MTS), % of medium control; for viability at 24 h, 3 µM: 3 µM + CPP2, replicates Fig. 3i; for viability at 24 h, 10 µM: 10 µM + CPP2; for viability at 24 h, 30 µM: 30 µM + CPP2; for viability at 24 h, 100 µM: 100 µM + CPP2
Procedure: as §1, §2, §3

primary human VSMCs = assay: CPP1-induced VSMC calcium deposition; assay type: cell-based; conditions: for VSMC calcium deposition (CPP2 = 100): CPP1 50 µg Ca/mL
Procedure: Calcium deposition on cell monolayers was assessed qualitatively by staining for calcium with 2% w/v Alizarin Red S aqueous solution (pH 4.2) (05600, Fluka Analytical). Cell monolayers in 24-well plates were washed with PBS (10010015, Thermo Fischer), fixed in 10% v/v NBF in PBS (F8775, Sigma-Aldrich) for 45 min at RT, washed with milli-Q water, incubated for 3 min with 300 µL Alizarin Red S solution, washed with milli-Q, and images were acquired using a Axiovert 35 microscope (Zeiss, Carl Zeiss Microscopy GmbH, Jena, Germany) at ×100 magnification. Calcium quantitation was performed after washing cells with PBS and then decalcifying cell monolayers with 0.1 M HCl overnight at 4 °C. Acidic supernatants were centrifuged (10,000 × g, 4 °C, 10 min) and calcium content was assessed using the calcium colorimetric assay.

PK in healthy rats, s.c. = assay type: in vivo, male Sprague-Dawley rats; conditions: for MRT: read-out: mean residence time (MRT) (converted); for plasma concentration: unit not given
CPPs = assay: TEM and selected area electron diffraction of CPPs; design: species or system human
Procedure: To confirm the screening assay data, the hydrodynamic diameter of the CPPs was measured by dynamic light scattering (DLS). […] The CPP2 size deduced by DLS is slightly larger than the size derived from transmission electron microscopy (TEM) (Supplementary Figs. 4c and 7a), the latter being in line with previous work[52].
CPPs were prepared (vide supra) and TEM was performed similar to previous reports. […] […] Herein, cell culture grade 50 mM HEPES (1 M HEPES, 5630056, Thermo Fischer Scientific) was used for washing steps, to avoid high solvent and particle background in TEM. In brief, CPPs at 0.5 mg calcium/mL were drop-casted onto a copper grid, 300 mesh, covered with a continuous 8-nm-thick carbon film. The TEM data were collected with an FEI Tecnai F30 FEG TEM operated at 300 kV acceleration voltage and equipped with a Gatan 749 MultiScan CCD camera (Thermo Fischer Scientific). The bright-field images were collected at ×39,000 magnification using a 10-μm objective aperture. To assess the crystallinity of the sample selected area diffraction patterns were collected in parallel at a camera length of 300 mm. The radii of the rings in the diffraction pattern were measured (1/nm) and the associated interplanar d-spacings (nm) were calculated.

[3] = 3 µM + CPP2, replicates Fig. 3i, 3 µM
[4] = male, Sprague-Dawley, rat, in vivo, sc, 10 mg/kg s.c.
[5] = male, Sprague-Dawley, rat, in vivo, sc, 50 mg/kg s.c.
[6] = male, Sprague-Dawley, rat, plasma, sc, 100 mg/kg s.c.

COCCOCCO[C@@H]1[C@@H](OP(=O)(O)O)[C@H](OCCOCCOC)[C@@H](OP(=O)(O)O)[C@@H](OP(=O)(O)O)[C@H]1OP(=O)(O)O [(OEG2)2-IP4, 4,6-Di-O-(methoxy-diethyleneglycol)-myo-inositol-1,2,3,5-tetrakis(phosphate)]
Macrophage viability (MTS), % of medium control [1, 3]: 98.1% and 100.05%
Macrophage viability (MTS), % of medium control ([1]; 10 µM + CPP2, 10 µM): 99.92% and 100.59%
Macrophage viability (MTS), % of medium control ([1]; 30 µM + CPP2, 30 µM): 96.73% and 98.39%
Macrophage viability (MTS), % of medium control ([1]; 100 µM + CPP2, 100 µM): 94.54% and 99.09%
viability at 24 h, 3 µM [2]: 100%
viability at 24 h, 10 µM [2]: 97.5%
viability at 24 h, 30 µM [2]: 96.5%
viability at 24 h, 100 µM [2]: 99.1%
VSMC calcium deposition (CPP2 = 100) (primary human VSMCs; 1 µM, replicates Fig. 3g): 54.74% and 45.04% and 38.43%
VSMC calcium deposition (CPP2 = 100) (primary human VSMCs; 10 µM): 14.07% and 5.29% and 7.26%
VSMC calcium deposition (CPP2 = 100) (primary human VSMCs; 30 µM): 8.51% and 7.29% and 1.56%
VSMC calcium deposition (CPP2 = 100) (primary human VSMCs; 100 µM): 1.78% and 6.75% and 5.25%
concentration from which calcium deposition was reduced to the level of control (primary human VSMCs; CPP1): ≥ 10 µM
AUC(0-t) (PK in healthy rats, s.c.; male, Sprague-Dawley, rat, in vivo, sc, 10 mg/kg, 10 mg/kg s.c., t = 360 min): 19.8 µM·h
AUC(0-t) (PK in healthy rats, s.c.; male, Sprague-Dawley, rat, in vivo, sc, 50 mg/kg, 50 mg/kg s.c., tlast 1440 min): 120 µM·h
AUC(0-inf) (PK in healthy rats, s.c.; [4]): 19.9 µM·h
Tmax (PK in healthy rats, s.c.; [4]): 25 min
half-life (PK in healthy rats, s.c.; male, Sprague-Dawley, rat, in vivo, sc, 10 mg/kg s.c., healthy rats): 47 ± 1 min
Cmax (PK in healthy rats, s.c.; male, Sprague-Dawley, rat, in vivo, sc, 10 mg/kg s.c., read-out: Cmax): 12 ± 1 µM
AUC(0-inf) (PK in healthy rats, s.c.; [5]): 122 µM·h
half-life (PK in healthy rats, s.c.; [5]): 190 ± 66 min
Cmax (PK in healthy rats, s.c.; male, Sprague-Dawley, rat, in vivo, sc, 50 mg/kg s.c., read-out: Cmax): 71 ± 26 µM
MRT (PK in healthy rats, s.c.; male, Sprague-Dawley, rat, in vivo, sc): 78 min
CPP morphology (TEM) (CPPs; 10 µM): matched those of CPP2s
CPP crystallinity (selected area electron diffraction) (CPPs; 100 µM, 14 h, 37 °C): largely amorphous
CPP morphology (TEM) (CPPs; 100 µM, 14 h, 37 °C): spherical-shaped CPP1s

O=P(O)(O)O[C@H]1[C@H](OP(=O)(O)O)[C@@H](OP(=O)(O)O)[C@H](OP(=O)(O)O)[C@@H](OP(=O)(O)O)[C@H]1OP(=O)(O)O [IP6, myo-Inositol hexakisphosphate]
Macrophage viability (MTS), % of medium control [1, 3]: 102.11% and 100.63%
Macrophage viability (MTS), % of medium control ([1]; 10 µM + CPP2, 10 µM): 99.19%
Macrophage viability (MTS), % of medium control ([1]; 30 µM + CPP2, 30 µM): 96.22% and 102.8%
reduction of macrophage viability ([1]; 100 µM + CPP2): 24%
Macrophage viability (MTS), % of medium control ([1]; 100 µM + CPP2, 100 µM): 79.04% and 78.68%
viability at 24 h, 3 µM [2]: 100%
viability at 24 h, 10 µM [2]: 98%
viability at 24 h, 30 µM [2]: 95.5%
viability at 24 h, 100 µM [2]: 69.2%
VSMC calcium deposition (CPP2 = 100) (primary human VSMCs; 3 µM): 82.15% and 53.35% and 45.33%
VSMC calcium deposition (CPP2 = 100) (primary human VSMCs; 100 µM): 138.44% and 188.13% and 99%
plasma concentrations (below lower limit of quantification) (PK in healthy rats, s.c.; 10 mg/kg s.c.): < 0.772 µM
Cmax (PK in healthy rats, s.c.; 10 mg/kg s.c., LLOQ = 772 nM): < LLOQ
plasma concentration (PK in healthy rats, s.c.; 100 mg/kg s.c., 5 min): 20.1 and 17.5 and 23.6
plasma concentration (PK in healthy rats, s.c.; 100 mg/kg s.c., 0.5 h): 13.6 and 19.8 and 10.3
AUC(0-inf) (PK in healthy rats, s.c.; [6]): 22.4 µM·h
Tmax (PK in healthy rats, s.c.; [6]): 12 min
half-life (PK in healthy rats, s.c.; [6]): 29 ± 15 min
AUC(0-t) (PK in healthy rats, s.c.; male, Sprague-Dawley, rat, plasma, sc, 100 mg/kg s.c., t = 90 min (Fig. 4d; tlast 360 in Suppl. Table 2)): 19.4 µM·h
Cmax (PK in healthy rats, s.c.; male, Sprague-Dawley, rat, plasma, sc, 100 mg/kg s.c., read-out: Cmax): 33 ± 10 µM
MRT (PK in healthy rats, s.c.; male, Sprague-Dawley, rat, plasma, sc): 45 min
CPP morphology (TEM) (CPPs; 100 µM, 14 h, 37 °C): spindle-shaped CPP2s
